Patent US7763728B2, “Tetrahydropyridothiophenes” (4SC AG, priority 2005, dated 2010)

What was measured:
[1] = system: RKO (RKOp27) human colon adenocarcinoma cells; assay: Alamar Blue cell viability assay, anti-proliferative/cytotoxic activity on proliferating (uninduced) RKOp27 cells; format: cell-based; conditions: 72 hours incubation, absence of the inducer Ponasterone A, read-out: IC50 RKO p27 uninduced (proliferating)
Method: The anti-proliferative/cytotoxic activity of the compounds described herein, can be tested on subclones of RKO (RKOp27) human colon adenocarcinoma cells (Schmidt et al., Oncogene 19, 2423-2429; 2000) using the Alamar Blue cell viability assay (described in O'Brien et al. Eur J Biochem 267, 5421-5426, 2000). The compounds are dissolved as 20 mM solutions in dimethylsulfoxide (DMSO) and subsequently diluted in semi-logarithmic steps. DMSO dilutions are further diluted 1:100 into Dulbecco's modified Eagle's medium (DMEM) containing 10% fetal calf serum to a final concentration twice as much as the final concentration in the test. RKO subclones are seeded into 96 well flat bottom plates at a density of 5000 cells per well in a volume of 50 μl per well. 24 hours after seeding the 50 μl each of the compound dilutions in DMEM medium are added into each well of the 96 Well plate. Each compound dilution is tested as quadruplicates. Wells containing untreated control cells are filled with 50 μl DMEM medium containing 1% DMSO. The cells are then incubated with the substances for 72 hours at 37° C. in a humified atmosphere containing 5% carbon dioxide. To determine the viability of the cells, 10 μl of an Alamar Blue solution (Biosource) are added and the fluorescence is measured at an extinction of 544 nm and an emission of 590 nm. For the calculation of the cell viability the emission value from untreated cells is set as 100% viability and the emission rates of treated cells are set in relation to the values of untreated cells. Viabilities are expressed as % values.
The corresponding IC50 values of the compounds for anti-proliferative/cytotoxic activity are determined from the concentration-effect curves.
Representative IC50 values for anti-proliferation/cytotoxicity determined in the mentioned assay follow from the following table A, in which the numbers of the compounds correspond to the numbers of the examples.

[2] = system: RKO colon adenocarcinoma cells (RKOp27) arrested by the expression of ectopic p27Kip1; assay: Alamar Blue cell viability assay on RKOp27 cells arrested by p27Kip1 expression induced by Ponasterone A; format: cell-based; conditions: Homo sapiens, 72 hours incubation, 10 μM Ponasterone A, read-out: IC50 RKO p27 induced (arrested)
Method: To determine the cell cycle specific mode of action, subclones of RKO colon adenocarcinoma cells (RKOp27 or RKOp21 as described by Schmidt et al. in Oncogene 19, 2423-2429; 2000) are seeded into 96 well flat bottom plates at a density of 15000 cells per well in a volume of 50 μl per well in DMEM growth medium with 10% FCS containing 10 μM Ponasterone A. 24 hours after seeding the 50 μl each of the compound dilutions in DMEM medium are added into each well of the 96 Well plate. Each compound dilution is tested as quadruplicates. Wells containing untreated control cells are filled with 50 μl DMEM medium containing 1% DMSO. The cells are then incubated with the substances for 72 hours at 37° C. in a humidified atmosphere containing 5% carbon dioxide. To determine the viability of the cells, 10 μl of an Alamar Blue solution (Biosource) are added and the fluorescence was measured at an extinction of 544 nm and an emission of 590 nm. For the calculation of the cell viability the emission value from untreated cells is set as 100% viability and the emission rates of treated cells are set in relation to the values of untreated cells. Viabilities are expressed as % values. Viability is compared of proliferating cells grown in the absence of the inducer Ponasterone A, versus viability of cells arrested by the expression of ectopic p27Kip1 induced by Ponasterone A.

SMILES	IC50 [1]	IC50 [2]
COc1ccccc1C(C)CC(=O)Nc1sc2c(c1C#N)CCN(C(=O)Cc1ccncc1)C2 (racemic) [Example 70, (RS)—N-[3-Cyano-6-(2-pyridin-4-yl-ethanoyl)-4,5,6,7-tetrahydro-thieno[2,3-c]pyridin-2-yl]-3-(2-methoxy-phenyl)-butyramide]	≤ 0.3 µM	≥ 40 µM
COc1ccccc1CCC(=O)Nc1sc2c(c1C#N)CCN(C(=O)CCn1ccnc1C)C2 [Example 108, N-{3Cyano-6-[3-(2-methyl-imidazol-1-yl)-propanoyl]-4,5,6,7-tetrahydro-thieno[2,3-c]pyridin-2-yl}-3-(2-methoxy-phenyl)-propionamide]	0.3 to 2 µM	≥ 10 µM
CCOc1ccccc1C(C)CC(=O)Nc1sc2c(c1C#N)CCN(C(=O)CCc1nccn1C)C2 (racemic) [Example 114, (RS)—N-{3-Cyano-6-[3-(1-methyl-1H-imidazol-2-yl)-propanoyl]-4,5,6,7-tetrahydro-thieno[2,3-c]pyridin-2-yl}-3-(2-ethoxy-phenyl)-butyramide]	0.3 to 2 µM	≥ 10 µM
COc1ccccc1CCC(=O)Nc1sc2c(c1C#N)CCN(C(=O)CCc1nccn1C)C2 [Example 116, N-{3-Cyano-6-[3-(1-methyl-1H-imidazol-2-yl)-propanoyl]-4,5,6,7-tetrahydro-thieno[2,3-c]pyridin-2-yl}-3-(2-methoxy-phenyl)-propionamide]	≤ 0.3 µM	≥ 10 µM
CCOc1ccccc1C(C)CC(=O)Nc1sc2c(c1C#N)CCN(C(=O)Cn1ccnc1)C2 (racemic) [Example 83, (RS)—N-[3-Cyano-6-(2-imidazol-1-yl-ethanoyl)-4,5,6,7-tetrahydro-thieno[2,3-c]pyridin-2-yl]-3-(2-ethoxy-phenyl)-butyramide]	≤ 0.3 µM	≥ 40 µM
CCOc1ccccc1CCC(=O)Nc1sc2c(c1C#N)CCN(C(=O)CCOC)C2 [Example 13, N-[3-Cyano-6-(3-methoxy-propanoyl)-4,5,6,7-tetrahydro-thieno[2,3-c]pyridin-2-yl]-3-(2-ethoxy-phenyl)-propionamide]	≤ 0.3 µM	> 100 µM
COc1ccc(OC)c(CCC(=O)Nc2sc3c(c2C#N)CCN(C(=O)Cc2cccnc2)C3)c1 [Example 36, N-[3-Cyano-6-(2-pyridin-3-yl-ethanoyl)-4,5,6,7-tetrahydro-thieno[2,3-c]pyridin-2-yl]-3-(2,5-dimethoxy-phenyl)-propionamide]	0.3 to 2 µM	> 100 µM
CCOc1ccccc1C(C)CC(=O)Nc1sc2c(c1C#N)CCN(C(=O)Cn1cc(C)nc1C)C2 (racemic) [Example 145, (RS)—N-{3-Cyano-6-[2-(2,4-dimethyl-imidazol-1-yl)-ethanoyl]-4,5,6,7-tetrahydro-thieno[2,3-c]pyridin-2-yl}-3-(2-ethoxy-phenyl)-butyramide]	≤ 0.3 µM	≥ 10 µM
COC(=O)CCC(=O)N1CCc2c(sc(NC(=O)CCc3ccccc3OC)c2C#N)C1 [Example 4, 4-{3-Cyano-2-[3-(2-methoxy-phenyl)-propanoylamino]-4,7-dihydro-5H-thieno[2,3-c]pyridin-6-yl}-4-oxo-butyric acid methyl ester]	0.3 to 2 µM	> 100 µM
COc1cccc(CCC(=O)Nc2sc3c(c2C#N)CCN(C(=O)CO)C3)c1 [Example 28, N-[3-Cyano-6-(2-hydroxy-ethanoyl)-4,5,6,7-tetrahydro-thieno[2,3-c]pyridin-2-yl]-3-(3-methoxy-phenyl)-propionamide]	0.3 to 2 µM	> 100 µM
CCCC(=O)N1CCc2c(sc(NC(=O)CCc3ccccc3OCC)c2C#N)C1 [Example 24, N-(6-Butyryl-3-cyano-4,5,6,7-tetrahydro-thieno[2,3-c]pyridin-2-yl)-3-(2-ethoxy-phenyl)-propionamide]	≤ 0.3 µM	> 100 µM
CCOc1ccccc1CCC(=O)Nc1sc2c(c1C#N)CCN(C(=O)Cc1ccncc1)C2 [Example 73, N-[3-Cyano-6-(2-pyridin-4-yl-ethanoyl)-4,5,6,7-tetrahydro-thieno[2,3-c]pyridin-2-yl]-3-(2-ethoxy-phenyl)-propionamide]	≤ 0.3 µM	≥ 40 µM
